Test results reported in ChEMBL document CHEMBL2007661, “Compounds: GSK PKIS; Assays: UNC Frye lab” (2012).
Where “and” joins values, the source holds several entries; their conditions need not be identical. Equal entries are not always repeated.

Key:
Settings in all cases: at 1 µM
[1] = biological target: T1, Inhibitor of nuclear factor kappa-B kinase subunit beta (Homo sapiens) (UniProt O14920)
T1 sequence (whole entry): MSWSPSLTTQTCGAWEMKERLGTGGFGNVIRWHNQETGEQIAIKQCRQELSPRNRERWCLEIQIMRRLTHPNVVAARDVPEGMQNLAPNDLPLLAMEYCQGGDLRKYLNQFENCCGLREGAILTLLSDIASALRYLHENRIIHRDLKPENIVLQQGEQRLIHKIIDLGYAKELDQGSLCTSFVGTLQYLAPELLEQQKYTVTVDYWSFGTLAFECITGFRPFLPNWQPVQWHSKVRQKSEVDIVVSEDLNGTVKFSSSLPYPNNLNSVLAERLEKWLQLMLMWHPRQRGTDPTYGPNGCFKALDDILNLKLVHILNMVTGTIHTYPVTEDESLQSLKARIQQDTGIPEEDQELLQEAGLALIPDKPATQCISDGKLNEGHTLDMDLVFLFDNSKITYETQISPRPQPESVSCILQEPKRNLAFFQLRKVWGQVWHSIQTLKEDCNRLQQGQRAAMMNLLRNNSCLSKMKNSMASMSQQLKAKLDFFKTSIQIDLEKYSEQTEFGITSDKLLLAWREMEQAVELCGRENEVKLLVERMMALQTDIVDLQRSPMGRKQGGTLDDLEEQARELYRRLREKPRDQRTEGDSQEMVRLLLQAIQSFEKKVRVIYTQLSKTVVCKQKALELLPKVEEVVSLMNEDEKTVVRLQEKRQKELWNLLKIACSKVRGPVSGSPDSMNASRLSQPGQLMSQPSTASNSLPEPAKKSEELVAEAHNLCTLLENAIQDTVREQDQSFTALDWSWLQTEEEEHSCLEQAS

[2] = biological target: T2, Serine/threonine-protein kinase TBK1 (Homo sapiens) (UniProt Q9UHD2)
T2 sequence (whole entry): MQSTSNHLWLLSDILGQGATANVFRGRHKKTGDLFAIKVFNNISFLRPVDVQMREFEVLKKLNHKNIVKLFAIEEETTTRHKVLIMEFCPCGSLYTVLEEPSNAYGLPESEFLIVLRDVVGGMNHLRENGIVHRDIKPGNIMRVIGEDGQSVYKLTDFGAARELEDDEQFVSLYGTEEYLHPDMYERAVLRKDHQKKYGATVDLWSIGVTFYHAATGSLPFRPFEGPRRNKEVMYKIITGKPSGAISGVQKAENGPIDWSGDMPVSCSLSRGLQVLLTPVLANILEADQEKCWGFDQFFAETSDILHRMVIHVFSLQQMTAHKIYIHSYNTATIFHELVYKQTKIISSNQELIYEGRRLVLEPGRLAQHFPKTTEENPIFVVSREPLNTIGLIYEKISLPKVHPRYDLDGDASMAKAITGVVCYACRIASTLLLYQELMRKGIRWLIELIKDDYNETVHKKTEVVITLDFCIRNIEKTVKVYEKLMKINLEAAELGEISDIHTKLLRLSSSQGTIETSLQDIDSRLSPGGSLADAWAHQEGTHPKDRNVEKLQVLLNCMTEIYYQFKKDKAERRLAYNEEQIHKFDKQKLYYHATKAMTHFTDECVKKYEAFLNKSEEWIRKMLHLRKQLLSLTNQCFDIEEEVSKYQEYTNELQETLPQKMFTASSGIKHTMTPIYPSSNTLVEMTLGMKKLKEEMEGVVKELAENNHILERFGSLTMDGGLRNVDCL

[3] = biological target: T3, Inhibitor of nuclear factor kappa-B kinase subunit alpha (Homo sapiens) (UniProt O15111)
T3 sequence (whole entry): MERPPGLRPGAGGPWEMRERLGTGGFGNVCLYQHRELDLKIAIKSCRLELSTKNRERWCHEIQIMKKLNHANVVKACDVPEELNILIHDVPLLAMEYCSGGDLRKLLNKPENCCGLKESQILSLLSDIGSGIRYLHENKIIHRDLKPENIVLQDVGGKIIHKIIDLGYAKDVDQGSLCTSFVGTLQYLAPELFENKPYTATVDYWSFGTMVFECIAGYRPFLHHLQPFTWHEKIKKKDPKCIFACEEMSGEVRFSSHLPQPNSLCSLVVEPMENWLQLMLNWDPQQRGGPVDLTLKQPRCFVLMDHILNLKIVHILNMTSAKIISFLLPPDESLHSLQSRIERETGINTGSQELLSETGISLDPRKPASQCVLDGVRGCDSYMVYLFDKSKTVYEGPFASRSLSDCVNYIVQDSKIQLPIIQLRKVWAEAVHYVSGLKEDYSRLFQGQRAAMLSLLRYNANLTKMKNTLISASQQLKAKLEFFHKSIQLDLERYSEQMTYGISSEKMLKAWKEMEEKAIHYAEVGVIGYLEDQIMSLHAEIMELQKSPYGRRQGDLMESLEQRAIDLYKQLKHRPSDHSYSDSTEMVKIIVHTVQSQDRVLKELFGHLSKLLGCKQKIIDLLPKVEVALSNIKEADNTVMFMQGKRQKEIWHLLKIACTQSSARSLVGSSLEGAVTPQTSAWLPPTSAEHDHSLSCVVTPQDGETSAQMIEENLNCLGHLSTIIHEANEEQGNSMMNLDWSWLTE

[4] = biological target: T4, Inhibitor of nuclear factor kappa-B kinase subunit epsilon (Homo sapiens) (UniProt Q14164)
T4 sequence (whole entry): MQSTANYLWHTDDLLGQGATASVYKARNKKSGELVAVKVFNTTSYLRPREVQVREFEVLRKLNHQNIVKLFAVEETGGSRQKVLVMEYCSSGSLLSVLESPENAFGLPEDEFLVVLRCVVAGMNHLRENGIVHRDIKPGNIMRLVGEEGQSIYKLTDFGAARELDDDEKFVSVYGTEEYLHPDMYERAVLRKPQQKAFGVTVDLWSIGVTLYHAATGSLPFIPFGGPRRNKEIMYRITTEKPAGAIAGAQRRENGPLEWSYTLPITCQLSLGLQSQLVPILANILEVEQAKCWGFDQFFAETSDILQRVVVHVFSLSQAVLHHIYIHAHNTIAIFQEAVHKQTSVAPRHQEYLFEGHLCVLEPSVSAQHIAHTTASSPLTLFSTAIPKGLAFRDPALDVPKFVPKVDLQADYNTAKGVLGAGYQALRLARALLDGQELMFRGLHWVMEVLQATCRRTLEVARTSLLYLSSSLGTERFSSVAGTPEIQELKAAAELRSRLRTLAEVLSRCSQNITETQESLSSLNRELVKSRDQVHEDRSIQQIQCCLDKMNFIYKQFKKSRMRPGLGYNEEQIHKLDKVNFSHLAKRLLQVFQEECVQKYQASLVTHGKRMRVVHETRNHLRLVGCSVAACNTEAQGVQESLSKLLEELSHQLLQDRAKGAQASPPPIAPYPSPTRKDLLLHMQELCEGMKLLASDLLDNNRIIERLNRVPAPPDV

CCS(=O)(=O)c1ccc(OC)c(Nc2ncc(-c3ccccc3Cl)o2)c1
inhibition [1]: -7% and -4%
inhibition [2]: 2% and 6%
inhibition [3]: -3% and 4%
inhibition [4]: 2% and 1%

COc1cccc(-n2ncc3c(N/N=C/c4ccncc4)ncnc32)c1
inhibition [1]: -2%
inhibition [2]: 13% and 14%
inhibition [3]: 1% and 4%
inhibition [4]: 6% and 4%

CN(C)c1cc2c(Nc3ccc4nc(Cc5ccccc5)[nH]c4c3)ncnc2cn1
inhibition [1]: -2% and -3%
inhibition [2]: 2% and 6%
inhibition [3]: 2% and 1%
inhibition [4]: 0% and 6%

N#Cc1c(NC(=O)c2ccccc2F)sc2c1CCCC2
inhibition [1]: 1% and 0%
inhibition [2]: 0% and 2%
inhibition [3]: -3%
inhibition [4]: 1% and 4%

CCn1c(-c2nonc2N)nc2c(C#CC(C)(C)O)nc(CN3CCCC3)cc21
inhibition [1]: -3% and 3%
inhibition [2]: 24% and 20%
inhibition [3]: -7% and 2%
inhibition [4]: 52% and 51%

CN(C)c1cc2c(Nc3ccc4c(cnn4Cc4ccccc4)c3)ncnc2cn1
inhibition [1]: -3% and -2%
inhibition [2]: 2% and -3%
inhibition [3]: 1% and 2%
inhibition [4]: -2%

COc1cccc(COc2cc(-n3cnc4ccccc43)sc2C(N)=O)c1
inhibition [1]: -5% and -4%
inhibition [2]: 2% and 0%
inhibition [3]: 4% and 3%
inhibition [4]: -1%

COc1cc2ncn(-c3cc(O[C@H](C)c4ccccc4Cl)c(C(N)=O)s3)c2cc1OC
inhibition [1]: 0% and -8%
inhibition [2]: 2% and 0%
inhibition [3]: -2% and 4%
inhibition [4]: 3% and 2%

COc1ccc2c(-c3ccnc(Nc4cccc(OC(F)(F)F)c4)n3)cnn2n1
inhibition [1]: -3% and -2%
inhibition [2]: 49%
inhibition [3]: 2% and 1%
inhibition [4]: 44% and 43%

CS(=O)(=O)CCNCc1cc(-c2cc3c(Nc4ccc(OCc5cccc(F)c5)c(Cl)c4)ncnc3s2)cs1
inhibition [1]: -8% and 5%
inhibition [2]: 0%
inhibition [3]: 16% and 15%
inhibition [4]: 0% and 2%

Cc1ccc(Nc2ccnc(Nc3cccc(C(N)=O)c3)n2)cc1O
inhibition [1]: -3% and -2%
inhibition [2]: 27%
inhibition [3]: 2%
inhibition [4]: 26% and 27%

c1ccc(-c2n[nH]cc2-c2ccnc(-c3ccc(OCCN4CCOCC4)cc3)c2)nc1
inhibition [1]: -4% and -10%
inhibition [2]: -2% and -1%
inhibition [3]: 5% and 4%
inhibition [4]: -1% and 0%

Cc1cc(-c2ccccn2)cc(C)c1/C=C/c1cncc(-c2nn[nH]n2)c1
inhibition [1]: -5% and -2%
inhibition [2]: -2% and -5%
inhibition [3]: 3% and 1%
inhibition [4]: -1% and -2%

O=C1Nc2ccc(C(=O)c3ccco3)cc2C1=Cc1cc(Cl)c(O)c(Cl)c1
inhibition [1]: -8% and -7%
inhibition [2]: 86% and 87%
inhibition [3]: 5% and 4%
inhibition [4]: 92% and 91%

CC(=O)NCc1cccc(C#Cc2cncnc2Nc2ccc(OCc3cccc(F)c3)c(Cl)c2)c1
inhibition [1]: -3% and -4%
inhibition [2]: -6% and -7%
inhibition [3]: 1%
inhibition [4]: -4%

O=C(Nc1n[nH]c2nc(-c3ccc(O)cc3)c(Br)cc12)C1CC1
inhibition [1]: -4% and -2%
inhibition [2]: 37% and 33%
inhibition [3]: 2% and 14%
inhibition [4]: 4% and 6%

CC1=C(C(=O)Nc2ccc3[nH]ncc3c2)C(c2ccc(F)cc2)NC(=O)N1 (stereo not given)
inhibition [1]: 4% and -2%
inhibition [2]: -2% and 0%
inhibition [3]: 4% and 5%
inhibition [4]: 2%

NS(=O)(=O)c1cccc(-c2cc3ccncc3cc2OCc2ccccc2)c1
inhibition [1]: -4% and 2%
inhibition [2]: -7% and -1%
inhibition [3]: 2%
inhibition [4]: -3% and -1%

Cc1ccc(NC(=O)c2ccnc(N3CCCC3)c2)cc1-c1ccc(C(=O)NCC2CC2)cc1
inhibition [1]: 2%
inhibition [2]: 33% and 39%
inhibition [3]: -8%
inhibition [4]: 5% and 6%

COc1ccc(-c2cc3c(N)ncnc3o2)cc1
inhibition [1]: -5% and 1%
inhibition [2]: 1% and 2%
inhibition [3]: 2% and 3%
inhibition [4]: 2% and -2%
